# Starred links: 1 amine or outer side, 2 acyl side, 3 side chain; linkers in the order of their positions; H or OH if unused. Non-standard residues stand in square brackets, D forms with d. Residues, ends and D or L forms follow the SMILES beside them. X1 = O=C(O)[C@@H]1Cc2ccccc2CN1[C@H](N[*:1])C(=O)[*:2]; 2Thi = N[C@@H](Cc1cccs1)C(=O)O; Cha = N[C@@H](CC1CCCCC1)C(=O)O; Cit = NC(=O)NCCC[C@H](N)C(=O)O; Phg = N[C@H](C(=O)O)c1ccccc1; Tle = CC(C)(C)[C@H](N)C(=O)O; Nva = CCC[C@H](N)C(=O)O; Abu = CC[C@H](N)C(=O)O
# Target: Beta-secretase 1 (Homo sapiens) (UniProt P56817)
# Sequence (P56817 whole entry): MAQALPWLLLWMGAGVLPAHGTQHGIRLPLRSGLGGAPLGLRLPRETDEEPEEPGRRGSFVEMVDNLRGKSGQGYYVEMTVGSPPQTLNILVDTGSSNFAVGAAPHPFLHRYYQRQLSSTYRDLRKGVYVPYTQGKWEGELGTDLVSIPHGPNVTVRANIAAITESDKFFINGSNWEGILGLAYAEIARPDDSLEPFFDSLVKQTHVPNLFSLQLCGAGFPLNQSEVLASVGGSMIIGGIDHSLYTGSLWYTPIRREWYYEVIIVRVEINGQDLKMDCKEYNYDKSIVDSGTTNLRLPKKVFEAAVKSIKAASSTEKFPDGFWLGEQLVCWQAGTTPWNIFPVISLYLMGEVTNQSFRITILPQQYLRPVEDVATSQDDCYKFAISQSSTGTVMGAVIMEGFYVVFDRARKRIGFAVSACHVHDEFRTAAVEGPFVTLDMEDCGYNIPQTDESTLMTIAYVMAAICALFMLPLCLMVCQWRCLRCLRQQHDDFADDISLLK
# Assay: Activity of recombinant BACE assessed as retention time of substrate by HPLC method
row,Structure (SMILES),retention time [h]
1,CC[C@H](C)[C@H](N)C(=O)N[C@@H](CO)C(=O)N[C@@H](CCC(=O)O)C(=O)N[C@@H](CCCNC(N)=O)C(=O)N[C@@H](CC(N)=O)C(=O)N[C@@H](CC(C)C)C(=O)N[C@@H](CC(=O)O)C(=O)N[C@@H](C)C(=O)N[C@@H](CCC(=O)O)C(=O)N[C@@H](Cc1ccccc1)C(=O)N[C@@H](CCCNC(=N)N)C(=O)N[C@@H](Cc1cnc[nH]1)C(N)=O (H-ISE[Cit]NLDAEFRH-NH2),0.438
2,CC[C@H](NC(=O)[C@@H](NC(=O)[C@H](CCC(=O)O)NC(=O)[C@H](CO)NC(=O)[C@@H](N)[C@@H](C)CC)C(C)C)C(=O)N[C@@H](CC(C)C)C(=O)N[C@@H](CC(=O)O)C(=O)N[C@@H](C)C(=O)N[C@@H](CCC(=O)O)C(=O)N[C@@H](Cc1ccccc1)C(=O)N[C@@H](CCCNC(=N)N)C(=O)N[C@@H](Cc1cnc[nH]1)C(N)=O (H-ISEV[Abu]LDAEFRH-NH2),0.5
3,CC[C@H](C)[C@H](N)C(=O)N[C@@H](CO)C(=O)N[C@@H](CCC(=O)O)C(=O)N[C@H](C(=O)N[C@@H](CC(N)=O)C(=O)N[C@@H](CC(C)C)C(=O)N[C@@H](CC1CCCCC1)C(=O)N[C@@H](C)C(=O)N[C@@H](CCC(=O)O)C(=O)N[C@@H](Cc1ccccc1)C(=O)N[C@@H](CCCNC(=N)N)C(=O)N[C@@H](Cc1cnc[nH]1)C(N)=O)C(C)C (H-ISEVNL[Cha]AEFRH-NH2),0.727
4,CC[C@H](C)[C@H](N)C(=O)N[C@@H](CO)C(=O)N[C@@H](CCC(=O)O)C(=O)N[C@H](C(=O)N[C@H](C(=O)N[C@@H](CC(C)C)C(=O)N[C@@H](CC(=O)O)C(=O)N[C@@H](C)C(=O)N[C@@H](CCC(=O)O)C(=O)N[C@@H](Cc1ccccc1)C(=O)N[C@@H](CCCNC(=N)N)C(=O)N[C@@H](Cc1cnc[nH]1)C(N)=O)c1ccccc1)C(C)C (H-ISEV[Phg]LDAEFRH-NH2),0.541
5,CC[C@H](C)[C@H](N)C(=O)N[C@@H](CO)C(=O)N[C@@H](CCC(=O)O)C(=O)N[C@H](C(=O)N[C@@H](CC(N)=O)C(=O)N[C@H](C(=O)N[C@@H](CC(=O)O)C(=O)N[C@@H](C)C(=O)N[C@@H](CCC(=O)O)C(=O)N[C@@H](Cc1ccccc1)C(=O)N[C@@H](CCCNC(=N)N)C(=O)N[C@@H](Cc1cnc[nH]1)C(N)=O)N1Cc2ccccc2C[C@H]1C(=O)O)C(C)C (H-ISEVN[X1]DAEFRH-NH2),0.502
6,CC[C@H](C)[C@H](N)C(=O)N[C@@H](CO)C(=O)N[C@@H](CCC(=O)O)C(=O)N[C@@H](CC1CCCCC1)C(=O)N[C@@H](CC(N)=O)C(=O)N[C@@H](CC(C)C)C(=O)N[C@@H](CC(=O)O)C(=O)N[C@@H](C)C(=O)N[C@@H](CCC(=O)O)C(=O)N[C@@H](Cc1ccccc1)C(=O)N[C@@H](CCCNC(=N)N)C(=O)N[C@@H](Cc1cnc[nH]1)C(N)=O (H-ISE[Cha]NLDAEFRH-NH2),0.592
7,CC[C@H](C)[C@H](N)C(=O)N[C@@H](CO)C(=O)N[C@@H](CCC(=O)O)C(=O)N[C@H](C(=O)N[C@@H](CC(N)=O)C(=O)N[C@@H](CC(C)C)C(=O)N[C@@H](CC(=O)O)C(=O)N[C@@H](C)C(=O)N[C@@H](CCC(=O)O)C(=O)N[C@@H](Cc1ccccc1)C(=O)N[C@@H](CCCNC(=N)N)C(=O)N[C@@H](Cc1cnc[nH]1)C(N)=O)N1Cc2ccccc2C[C@H]1C(=O)O (H-ISE[X1]NLDAEFRH-NH2),0.599
8,CC[C@H](C)[C@H](N)C(=O)N[C@@H](CO)C(=O)N[C@@H](CCC(=O)O)C(=O)N[C@H](C(=O)N[C@@H](Cc1cccs1)C(=O)N[C@@H](Cc1cccs1)C(=O)O)[C@@H](C)CC (H-ISEI[2Thi][2Thi]-OH),0.63
9,CC[C@H](C)[C@H](N)C(=O)N[C@@H](CO)C(=O)N[C@@H](CCC(=O)O)C(=O)N[C@H](C(=O)N[C@@H](CCCCN)C(=O)N[C@@H](CCSC)C(=O)N[C@@H](CC(=O)O)C(=O)N[C@@H](C)C(=O)N[C@@H](CCC(=O)O)C(=O)N[C@@H](Cc1ccccc1)C(=O)N[C@@H](CCCNC(=N)N)C(=O)N[C@@H](Cc1cnc[nH]1)C(N)=O)C(C)C (H-ISEVKMDAEFRH-NH2),0.419
10,CC[C@H](C)[C@H](N)C(=O)N[C@@H](CO)C(=O)N[C@@H](CCC(=O)O)C(=O)N[C@H](C(=O)N[C@@H](CC(N)=O)C(=O)N[C@@H](CC(C)C)C(=O)N[C@H](C(=O)N[C@@H](C)C(=O)N[C@@H](CCC(=O)O)C(=O)N[C@@H](Cc1ccccc1)C(=O)N[C@@H](CCCNC(=N)N)C(=O)N[C@@H](Cc1cnc[nH]1)C(N)=O)c1ccccc1)C(C)C (H-ISEVNL[Phg]AEFRH-NH2),0.617
11,CC[C@H](C)[C@H](N)C(=O)N[C@@H](CO)C(=O)N[C@@H](CCC(N)=O)C(=O)N[C@H](C(=O)N[C@@H](CC(N)=O)C(=O)N[C@@H](CC(C)C)C(=O)N[C@@H](CC(=O)O)C(=O)N[C@@H](C)C(=O)N[C@@H](CCC(=O)O)C(=O)N[C@@H](Cc1ccccc1)C(=O)N[C@@H](CCCNC(=N)N)C(=O)N[C@@H](Cc1cnc[nH]1)C(N)=O)C(C)C (H-ISQVNLDAEFRH-NH2),0.469
12,CC[C@H](C)[C@H](N)C(=O)N[C@@H](CO)C(=O)N[C@@H](CCC(=O)O)C(=O)N[C@@H](CCC(=O)O)C(=O)N[C@@H](CC(N)=O)C(=O)N[C@@H](CC(C)C)C(=O)N[C@@H](CC(=O)O)C(=O)N[C@@H](C)C(=O)N[C@@H](CCC(=O)O)C(=O)N[C@@H](Cc1ccccc1)C(=O)N[C@@H](CCCNC(=N)N)C(=O)N[C@@H](Cc1cnc[nH]1)C(N)=O (H-ISEENLDAEFRH-NH2),0.457
13,CC[C@H](C)[C@H](N)C(=O)N[C@@H](CO)C(=O)N[C@H](C(=O)N[C@H](C(=O)N[C@@H](CC(N)=O)C(=O)N[C@@H](CC(C)C)C(=O)N[C@@H](CC(=O)O)C(=O)N[C@@H](C)C(=O)N[C@@H](CCC(=O)O)C(=O)N[C@@H](Cc1ccccc1)C(=O)N[C@@H](CCCNC(=N)N)C(=O)N[C@@H](Cc1cnc[nH]1)C(N)=O)C(C)C)N1Cc2ccccc2C[C@H]1C(=O)O (H-IS[X1]VNLDAEFRH-NH2),0.628
14,CC[C@H](C)[C@H](N)C(=O)N[C@@H](CO)C(=O)N[C@@H](CCC(=O)O)C(=O)N[C@H](C(=O)N[C@@H](CC(N)=O)C(=O)N[C@@H](CC(C)C)C(=O)N[C@@H](CC(=O)O)C(=O)N[C@@H](C)C(=O)N[C@@H](CCC(=O)O)C(=O)N[C@@H](Cc1ccccc1)C(=O)N[C@@H](CCCNC(=N)N)C(=O)N[C@@H](Cc1cnc[nH]1)C(N)=O)c1ccccc1 (H-ISE[Phg]NLDAEFRH-NH2),0.514
15,CC[C@H](C)[C@H](N)C(=O)N[C@@H](CO)C(=O)N[C@@H](CCC(=O)O)C(=O)N[C@H](C(=O)N[C@@H](CC(N)=O)C(=O)N[C@@H](CC(C)C)C(=O)N[C@@H](Cc1cccs1)C(=O)N[C@@H](C)C(=O)N[C@@H](CCC(=O)O)C(=O)N[C@@H](Cc1ccccc1)C(=O)N[C@@H](CCCNC(=N)N)C(=O)N[C@@H](Cc1cnc[nH]1)C(N)=O)C(C)C (H-ISEVNL[2Thi]AEFRH-NH2),0.656
16,CCC[C@H](NC(=O)[C@H](CO)NC(=O)[C@@H](N)[C@@H](C)CC)C(=O)N[C@H](C(=O)N[C@@H](CC(N)=O)C(=O)N[C@@H](CC(C)C)C(=O)N[C@@H](CC(=O)O)C(=O)N[C@@H](C)C(=O)N[C@@H](CCC(=O)O)C(=O)N[C@@H](Cc1ccccc1)C(=O)N[C@@H](CCCNC(=N)N)C(=O)N[C@@H](Cc1cnc[nH]1)C(N)=O)C(C)C (H-IS[Nva]VNLDAEFRH-NH2),0.567
17,CC[C@H](C)[C@H](N)C(=O)N[C@@H](CO)C(=O)N[C@@H](CCC(=O)O)C(=O)N[C@H](C(=O)N[C@@H](CC(N)=O)C(=O)N[C@@H](CC(C)C)C(=O)N[C@H](C(=O)N[C@@H](C)C(=O)N[C@@H](CCC(=O)O)C(=O)N[C@@H](Cc1ccccc1)C(=O)N[C@@H](CCCNC(=N)N)C(=O)N[C@@H](Cc1cnc[nH]1)C(N)=O)C(C)(C)C)C(C)C (H-ISEVNL[Tle]AEFRH-NH2),0.629
18,CC[C@H](C)[C@H](N)C(=O)N[C@@H](CO)C(=O)N[C@@H](CCC(=O)O)C(=O)N[C@H](C(=O)N[C@@H](CC1CCCCC1)C(=O)N[C@@H](CC(C)C)C(=O)N[C@@H](CC(=O)O)C(=O)N[C@@H](C)C(=O)N[C@@H](CCC(=O)O)C(=O)N[C@@H](Cc1ccccc1)C(=O)N[C@@H](CCCNC(=N)N)C(=O)N[C@@H](Cc1cnc[nH]1)C(N)=O)C(C)C (H-ISEV[Cha]LDAEFRH-NH2),0.616
19,CC[C@H](C)[C@H](N)C(=O)N[C@@H](CO)C(=O)N[C@@H](CCC(=O)O)C(=O)N[C@H](C(=O)N[C@@H](CC(N)=O)C(=O)N[C@@H](CC(C)C)C(=O)N[C@H](C(=O)N[C@@H](C)C(=O)N[C@@H](CCC(=O)O)C(=O)N[C@@H](Cc1ccccc1)C(=O)N[C@@H](CCCNC(=N)N)C(=O)N[C@@H](Cc1cnc[nH]1)C(N)=O)N1Cc2ccccc2C[C@H]1C(=O)O)C(C)C (H-ISEVNL[X1]AEFRH-NH2),0.648
20,CC[C@H](C)[C@H](N)C(=O)N[C@@H](CO)C(=O)N[C@@H](CCC(=O)O)C(=O)N[C@H](C(=O)N[C@@H](CC(N)=O)C(=O)N[C@@H](CC(C)C)C(=O)N[C@@H](CC(=O)O)C(=O)N[C@@H](C)C(=O)N[C@@H](CCC(=O)O)C(=O)N[C@@H](Cc1ccccc1)C(=O)N[C@@H](CCCNC(=N)N)C(=O)N[C@@H](Cc1cnc[nH]1)C(N)=O)C(C)(C)C (H-ISE[Tle]NLDAEFRH-NH2),0.517
21,CC[C@H](C)[C@H](N)C(=O)N[C@@H](CO)C(=O)N[C@@H](CCC(=O)O)C(=O)N[C@H](C(=O)N[C@@H](CC(N)=O)C(=O)N[C@@H](CC(C)C)C(=O)N[C@@H](CCCNC(N)=O)C(=O)N[C@@H](C)C(=O)N[C@@H](CCC(=O)O)C(=O)N[C@@H](Cc1ccccc1)C(=O)N[C@@H](CCCNC(=N)N)C(=O)N[C@@H](Cc1cnc[nH]1)C(N)=O)C(C)C (H-ISEVNL[Cit]AEFRH-NH2),0.536
22,CC[C@H](C)[C@H](N)C(=O)N[C@@H](CO)C(=O)N[C@@H](CCC(=O)O)C(=O)N[C@@H](Cc1cccs1)C(=O)N[C@@H](CC(N)=O)C(=O)N[C@@H](CC(C)C)C(=O)N[C@@H](CC(=O)O)C(=O)N[C@@H](C)C(=O)N[C@@H](CCC(=O)O)C(=O)N[C@@H](Cc1ccccc1)C(=O)N[C@@H](CCCNC(=N)N)C(=O)N[C@@H](Cc1cnc[nH]1)C(N)=O (H-ISE[2Thi]NLDAEFRH-NH2),0.533
23,CC[C@H](C)[C@H](N)C(=O)N[C@@H](CO)C(=O)N[C@@H](CCC(=O)O)C(=O)N[C@H](C(=O)N[C@H](C(=O)N[C@@H](CC(C)C)C(=O)N[C@@H](CC(=O)O)C(=O)N[C@@H](C)C(=O)N[C@@H](CCC(=O)O)C(=O)N[C@@H](Cc1ccccc1)C(=O)N[C@@H](CCCNC(=N)N)C(=O)N[C@@H](Cc1cnc[nH]1)C(N)=O)C(C)(C)C)C(C)C (H-ISEV[Tle]LDAEFRH-NH2),0.531
